In PubChem BioAssay AID2719 (The Scripps Research Institute Molecular Screening Center, 2010):

Target: Mucolipin-3 (Homo sapiens) (UniProt Q8TDD5)
Assay: calcium influx via TRP channels, profiling panel, selectivity assay for selective TRPML3 agonist project, cell-based, HEK293 transfected, Fura-2 ratio imaging (AID 2719)
Conditions: fura-2 calcium ratio, at 10 µM, active compounds read high

Mucolipin-3 (Homo sapiens), sequence (Q8TDD5 whole entry, looked up): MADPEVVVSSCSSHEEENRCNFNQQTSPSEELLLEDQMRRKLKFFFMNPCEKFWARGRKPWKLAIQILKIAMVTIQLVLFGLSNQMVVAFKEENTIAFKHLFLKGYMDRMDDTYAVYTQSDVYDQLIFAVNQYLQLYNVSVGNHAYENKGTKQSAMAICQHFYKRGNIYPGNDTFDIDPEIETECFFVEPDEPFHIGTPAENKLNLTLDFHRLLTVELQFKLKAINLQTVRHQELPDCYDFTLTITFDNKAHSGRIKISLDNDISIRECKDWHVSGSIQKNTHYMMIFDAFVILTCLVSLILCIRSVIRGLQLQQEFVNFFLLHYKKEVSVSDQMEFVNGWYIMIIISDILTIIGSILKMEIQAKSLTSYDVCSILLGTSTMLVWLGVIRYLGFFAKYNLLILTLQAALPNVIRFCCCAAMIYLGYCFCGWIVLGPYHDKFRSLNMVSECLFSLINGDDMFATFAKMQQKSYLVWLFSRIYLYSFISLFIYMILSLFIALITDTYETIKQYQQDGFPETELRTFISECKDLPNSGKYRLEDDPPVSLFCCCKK

Row | fura-2 ratio change (340/380) | Compound
1 | 0.52 | CC1CCN(S(=O)(=O)c2ccc(C(C)C)cc2)CC1
2 | 0.72 | Cc1ccc(S(=O)(=O)n2nccc2-c2c(-c3ccc(Cl)cc3)noc2C)cc1
3 | 1 | CCOc1ccc(S(=O)(=O)N2CCCCCC2)c2ccccc12
